Measurements published in US6833456B2, “Indolyl-urea derivatives of thienopyridines useful as antiangiogenic agents, and methods for their use” (Agouron Pharmaceuticals, Inc., priority 2002, dated 2004).
Several values for one entry are separate records, joined by “and”; a condition that tells them apart may be missing. Equal values may be shown once.

Experiments:
Mouse PK assay = type: in vivo, B6 female mice; details: for AUC / Cmax: female, B6, mouse, plasma; for AUC / Cmax / Mouse Cmin, po: po; for Cmax: read-out: Mouse Cmax, po ng-h/mL
In short: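 Plasma levels were measured by HPLC with UV detection after acetonitrile precipitation, using extracted standards, in blood taken up to 4 h (0.5, 1, 2, 4 h) post-dose. Dosing: 50 mg/kg orally or intraperitoneally to two groups of four female B6 mice, vehicle PEG 400:acidified H2O 30:70 suspension.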

HUVEC = experiment: bFGF HUVEC proliferation; type: cell-based, human; details: bFGF stimulated HUVEC
KDR (VEGFR2) = target: T1, KDR (VEGFR2) (Homo sapiens, UniProt P35968); experiment: KDR (VEGFR2) phosphorylation in PAE-KDR cells assay; type: cell-based; details: PAE cells overexpressing human KDR, VEGF stimulated; read-out: PAE KDR autophos IC50
T1 construct: expressed in transfected cells; host or cells: porcine aorta endothelial (PAE) cells
In short: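 PAE cells overexpressing human KDR, serum-starved 16 h (0.1% FBS), treated with compound 1 h at 37° C (0.5% DMSO), then stimulated 8 min with 500 ng/ml VEGF plus 2 mM Na3VO4. Lysate KDR phosphotyrosine measured by capture ELISA (anti-pY HRP, 450 nm); IC50 by four-parameter fit.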

[1] = Human liver microsome (HLM) assay; type: in vitro ADME; details: human liver microsomes, NADPH
Description: Compound metabolism in human liver microsomes was measured by LC-MS analytical assay procedures as follows. First, human liver microsomes (HLM) were thawed and diluted to 5 mg/mL with cold 100 mM potassium phosphate (KPO4) buffer. Appropriate amounts of KPO4 buffer, NADPH-regenerating solution (containing B-NADP, glucose-6-phosphate, glucose-6-phosphate dehydrogenase, and MgCl2), and HLM were preincubated in 13×100 mm glass tubes at 37° C. for 10 min. (3 tubes per test compound—triplicate). Test compound (5 μM final) was added to each tube to initiate reaction and was mixed by gentle vortexing, followed by incubation at 37° C. […] Samples were centrifuged at 4000 rpm for 20 min. to precipitate proteins and salt (Beckman Allegra 6KR, S/N ALK98DO6, #634). Supernatant was transferred to new 12×75 mm glass tubes and evaporated by Speed-Vac centrifugal vacuum evaporator. Samples were reconstituted in 200 μL 0.1% formic acid/acetonitrile (90/10) and vortexed vigorously to dissolve. The samples were then transferred to separate polypropylene microcentrifuge tubes and centrifuged at 14000×g for 10 min. (Fisher Micro 14, S/N M0017580). […]
The combined compound samples were injected into the LC-MS system, composed of a Hewlett-Packard HP1100 diode array HPLC and a Micromass Quattro II triple quadruple mass spectrometer operating in positive electrospray SIR mode (programmed to scan specifically for the molecular ion of each test compound). Each test compound peak was integrated at each timepoint. […]

T1 sequence (P35968 20-1356): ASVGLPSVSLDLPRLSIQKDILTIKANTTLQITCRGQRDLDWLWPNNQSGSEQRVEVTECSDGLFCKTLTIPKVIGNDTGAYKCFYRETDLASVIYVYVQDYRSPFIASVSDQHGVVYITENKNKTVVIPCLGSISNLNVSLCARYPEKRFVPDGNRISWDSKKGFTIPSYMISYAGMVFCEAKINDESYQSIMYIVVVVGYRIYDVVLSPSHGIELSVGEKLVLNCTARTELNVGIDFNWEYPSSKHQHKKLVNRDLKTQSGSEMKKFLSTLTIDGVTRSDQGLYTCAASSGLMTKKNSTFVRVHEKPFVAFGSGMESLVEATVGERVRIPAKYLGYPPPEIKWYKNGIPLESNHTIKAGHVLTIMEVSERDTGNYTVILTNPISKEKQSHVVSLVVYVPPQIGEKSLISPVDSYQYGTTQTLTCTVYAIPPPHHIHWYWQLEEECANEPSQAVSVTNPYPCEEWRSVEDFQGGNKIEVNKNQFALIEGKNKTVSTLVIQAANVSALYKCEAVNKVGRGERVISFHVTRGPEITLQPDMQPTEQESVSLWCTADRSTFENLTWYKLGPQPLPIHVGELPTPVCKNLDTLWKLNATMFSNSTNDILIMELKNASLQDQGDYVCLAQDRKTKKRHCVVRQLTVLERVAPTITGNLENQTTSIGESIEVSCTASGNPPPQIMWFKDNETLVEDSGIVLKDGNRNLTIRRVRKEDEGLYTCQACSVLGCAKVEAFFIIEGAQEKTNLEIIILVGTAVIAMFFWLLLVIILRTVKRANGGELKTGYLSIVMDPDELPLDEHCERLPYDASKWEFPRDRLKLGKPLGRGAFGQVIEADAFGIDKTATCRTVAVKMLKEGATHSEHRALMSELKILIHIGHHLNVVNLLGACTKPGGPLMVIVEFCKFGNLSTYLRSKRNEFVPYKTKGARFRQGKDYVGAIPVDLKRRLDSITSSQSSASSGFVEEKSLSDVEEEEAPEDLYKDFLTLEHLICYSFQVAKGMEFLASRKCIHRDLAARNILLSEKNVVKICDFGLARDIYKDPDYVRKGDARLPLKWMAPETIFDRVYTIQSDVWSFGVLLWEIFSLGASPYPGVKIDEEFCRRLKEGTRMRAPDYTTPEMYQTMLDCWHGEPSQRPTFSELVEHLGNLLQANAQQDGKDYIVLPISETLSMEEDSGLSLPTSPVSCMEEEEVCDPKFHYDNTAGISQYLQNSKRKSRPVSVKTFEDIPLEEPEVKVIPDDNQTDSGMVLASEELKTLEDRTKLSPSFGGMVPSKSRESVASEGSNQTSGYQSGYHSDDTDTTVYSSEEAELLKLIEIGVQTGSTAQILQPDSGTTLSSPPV

SMILES	AUC (Mouse PK assay; 50 mg/kg)	Cmax (Mouse PK assay; 50 mg/kg, p.o., 50 mg/kg)	Mouse Cmin, po (Mouse PK assay)	IC50 (HUVEC; Homo sapiens, HUVEC)	IC50 (KDR (VEGFR2))	IC50 (HUVEC)	% remain (HLM-NADPH, 0.5 h) [1]	Mouse Cmax, po ng/mL (Mouse PK assay; p.o., 50 mg/kg)
Cc1cc2cc(Nc3ccnc4cc(C(=O)N5CC[C@H](O)C5)sc34)ccc2n1C(=O)NC1CC1 [Example 1k, 5-[2-(3S-Hydroxy-pyrrolidine-1-carbonyl)-thieno[3,2-b]pyridin-7-ylamino]-2-methyl-indole-1-carboxylic acid cyclopropylamide]	18 ng·h/mL	8 ng/mL	0 ng/mL	26.6 nM	2.1 nM and 5.4 nM and 4.74 nM			
CNC(=O)n1c(C)cc2cc(Nc3ccnc4cc(C(=O)N5CC[C@@H](O)C5)sc34)ccc21 [Example 1n, 5-[2-(3R-Hydroxy-pyrrolidine-1-carbonyl)-thieno[3,2-b]pyridin-7-ylamino]-2-methyl-indole-1-carboxylic acid methylamide]	12 ng·h/mL	8 ng/mL	0 ng/mL	30.2 nM	4.01 nM and 2.77 nM	19.4 nM		
C#CCNC(=O)n1c(C)cc2cc(Nc3ccnc4cc(C(=O)N5CC[C@@H](O)C5)sc34)ccc21 [Example 1o, 5-[2-(3R-Hydroxy-pyrrolidine-1-carbonyl)-thieno[3,2-b]pyridin-7-ylamino]-2-methyl-indole-1-carboxylic acid prop-2-ynylamide]	219 ng·h/mL	100 ng/mL	6 ng/mL	49.6 nM	1.6 nM	52 nM		
CNC(=O)n1c(C)cc2cc(Nc3ccnc4cc(C(=O)N5CCC[C@H]5COC)sc34)ccc21 [Example 1t, 5-(2-[(S)-2-(methoxymethyl)pyrrolidine-1-carbonyl]thieno[3,2-b]pyridin-7-ylamino)-2-methylindole-1-carboxylic acid methylamide]	5860 ng·h/mL	4650 ng/mL	4 ng/mL		0.67 nM and 0.35 nM and 0.41 nM		76.3%	
Cc1cc2cc(Nc3ccnc4cc(C(=O)N5CCC[C@H]5CO)sc34)ccc2n1C(=O)NC1CC1 [Example 2e, 5-(2-[(S)-2-(hydroxymethyl)pyrrolidine-1-carbonyl]thieno[3,2-b]pyridin-7-ylamino)-2-methylindole-1-carboxylic acid cyclopropylamide]	43 ng·h/mL	28 ng/mL	0 ng/mL	27.8 nM	1.32 nM and 1.38 nM	31.6 nM		
CCOC(=O)c1csc(-c2cc3nccc(Nc4ccc5c(c4)cc(C)n5C(=O)NC)c3s2)n1 [Example 3c, 2-[7-(2-Methyl-1-methylcarbamoyl-1H-indol-5-ylamino)-thieno[3,2-b]pyridin-2-yl]-thiazole-4-carboxylic acid ethyl ester]			0 ng/mL	184 nM	0.1 nM and 0.041 nM	262 nM		0 ng/mL
CNC(=O)n1c(C)cc2cc(Nc3cccc4cc(C(=O)N5C[C@H](OC)C[C@H]5CO)sc34)ccc21 [Example 3f, 5-[2-((2S,4R)-2-Hydroxymethyl-4-methoxy-pyrrolidine-1-carbonyl)-benzo[b]thiophen-7-ylamino]-2-methyl-indole-1-carboxylic acid methylamide]	44 ng·h/mL	24 ng/mL	2 ng/mL	2050 nM	1.85 nM			
CO[C@@H]1C[C@@H](CO)N(C(=O)c2cc3cccc(Nc4ccc5c(c4)cc(C)n5C(=O)NC4CC4)c3s2)C1 [Example 3g, 5-[2-((2S,4R)-2-Hydroxymethyl-4-methoxy-pyrrolidine-1-carbonyl)-benzo[b]thiophen-7-ylamino]-2-methyl-indole-1-carboxylic acid cyclopropylamide]	46 ng·h/mL	19 ng/mL	2 ng/mL	656 nM	2.6 nM			
CNC(=O)n1c(C)cc2cc(Oc3ccnc4cc(C(=O)N5C[C@H](OC)C[C@H]5CO)sc34)ccc21 [Example 3o, 5-[2-(2-Hydroxymethyl-4-methoxy-pyrrolidine-1-carbonyl)-thieno[3,2-b]pyridin-7-yloxy]-2-methyl-indole-1-carboxylic acid methylamide]	2880 ng·h/mL	2820 ng/mL	20 ng/mL	246 nM	0.43 nM and 0.52 nM			
CNC(=O)n1c(C)cc2cc(Oc3ccnc4cc(C(=O)N5CC[C@@H](OC)C5)sc34)ccc21 [Example 4j, 5-[2-(3R-Methoxy-pyrrolidine-1-carbonyl)-thieno[3,2-b]pyridin-7-yloxy]-2-methyl-indole-1-carboxylic acid methylamide]	5080 ng·h/mL	3430 ng/mL	32 ng/mL	2.5 nM	0.86 nM and 0.35 nM and 0.34 nM	4.7 nM		
C#CCNC(=O)n1c(C)cc2cc(Oc3ccnc4cc(C(=O)N5CC[C@@H](O)C5)sc34)ccc21 [Example 4o, 5-[2-(3R-Hydroxy-pyrrolidine-1-carbonyl)-thieno[3,2-b]pyridin-7-yloxy]-2-methyl-indole-1-carboxylic acid prop-2-ynylamide]	28500 ng·h/mL	5070 ng/mL	825 ng/mL	7.9 nM	0.012 nM and 0.009 nM			
CNC(=O)n1c(C)cc2c(F)c(Oc3ccnc4cc(C(=O)N5CCC[C@H]5CO)sc34)ccc21 [Example 5n, 4-Fluoro-5-[(2-{[(2S)-2-(hydroxymethyl)pyrrolidin-1-yl]carbonyl}thieno[3,2-b]pyridin-7-yl)oxy]-N,2-dimethyl-1H-indole-1-carboxamide]	2560 ng·h/mL	1820 ng/mL	47 ng/mL	93 nM	0.28 nM and 0.5 nM and 0.53 nM			
C#CCNC(=O)n1c(C)cc2cc(Oc3ccnc4cc(C(=O)N5CCC[C@@H]5CO)sc34)ccc21 [Example 8q, 5-[2-(2R-Hydroxymethyl-pyrrolidine-1-carbonyl)-thieno[3,2-b]pyridin-7-yloxy]-2-methyl-indole-1-carboxylic acid prop-2-ynylamide]	31300 ng·h/mL	10400 ng/mL	1297 ng/mL	95 nM	0.45 nM and 0.19 nM			
CNC(=O)n1c(C)cc2cc(Oc3ccnc4cc(C(=O)N5CC[C@H](O)C5)sc34)ccc21 [Example 9g, 5-[2-(3S-Hydroxy-pyrrolidine-1-carbonyl)-thieno[3,2-b]pyridin-7-yloxy]-2-methyl-indole-1-carboxylic acid methylamide]	9530 ng·h/mL	4540 ng/mL		45 nM	0.29 nM and 0.86 nM and 0.34 nM	40 nM		
CCCNC(=O)n1c(C)cc2cc(Oc3ccnc4cc(C(=O)N5CC[C@H](O)C5)sc34)ccc21 [Example 9i, 5-[2-(3S-Hydroxy-pyrrolidine-1-carbonyl)-thieno[3,2-b]pyridin-7-yloxy]-2-methyl-indole-1-carboxylic acid propylamide]	9480 ng·h/mL	2320 ng/mL	461 ng/mL	5 nM	0.33 nM			
Cc1cc2cc(Oc3ccnc4cc(C(=O)N5CC[C@H](O)C5)sc34)ccc2n1C(=O)NCCCO [Example 9l, 5-[2-(3S-Hydroxy-pyrrolidine-1-carbonyl)-thieno[3,2-b]pyridin-7-yloxy]-2-methyl-indole-1-carboxylic acid (3-hydroxy-propyl)-amide]	138 ng·h/mL	56 ng/mL	4 ng/mL	37.6 nM	0.76 nM and 0.51 nM			
